Read-outs that look alike come from different tables or passages of the source.
Columns and labels:
[1] = cited from earlier work
[2] = RNA encapsulation / entrapment by Ribogreen assay; format: physicochemical; settings: LNPs with circular RNA, named by ionizable lipid
Experimental: A QUANT-ITT- RIBOGREEN® RNA assay (Invitrogen Corporation Carlsbad, CA) can be used to evaluate the encapsulation of circRNA by the nanoparticle composition. The samples are diluted to a concentration of approximately 5 μg/mL or 1 μg/mL in a TE buffer solution (10 mM Tris-HCl, 1 mM EDTA, pH 7.5). 50 μL of the diluted samples are transferred to a polystyrene 96 well plate and either 50 μL of TE buffer or 50 μL of a 2-4% Triton X-100 solution is added to the wells. The plate is incubated at a temperature of 37° C. for 15 minutes. The RIBOGREEN® reagent is diluted 1:100 or 1:200 in TE buffer, and 100 μL of this solution is added to each well. The fluorescence intensity can be measured using a fluorescence plate reader (Wallac Victor 1420 Multilabel Counter; Perkin Elmer, Waltham, MA) at an excitation wavelength of, for example, about 480 nm and an emission wavelength of, for example, about 520 nm. The fluorescence values of the reagent blank are subtracted from that of each of the samples and the percentage of free circRNA is determined by dividing the fluorescence intensity of the intact sample (without addition of Triton X-100) by the fluorescence value of the disrupted sample (caused by the addition of Triton X-100). C.
For transfer vehicle compositions including RNA, a QUANT-IT- RIBOGREEN® RNA assay (Invitrogen Corporation Carlsbad, CA) can be used to evaluate the encapsulation of RNA by the transfer vehicle composition. […] The fluorescence intensity can be measured using a fluorescence plate reader (Wallac Victor 1420 Multilablel Counter; Perkin Elmer, Waltham, MA) at an excitation wavelength of, for example, about 480 nm and an emission wavelength of, for example, about 520 nm. The fluorescence values of the reagent blank are subtracted from that of each of the samples and the percentage of free RNA is determined by dividing the fluorescence intensity of the intact sample (without addition of Triton X-100) by the fluorescence value of the disrupted sample (caused by the addition of Triton X-100). […]

[3] = LNP particle size (Z-average) and polydispersity index by dynamic light scattering; format: physicochemical; settings: LNPs with circular RNA, named by ionizable lipid; for Z-Average(nm): in PBS pH 7.4
Experimental: The microfluidic chamber is cleaned with ethanol and neMYSIS syringe pumps are prepared by loading a syringe with the RNA solution and another syringe with the ethanolic lipid. Both syringes are loaded and under the control of neMESYS software. The solutions are then applied to the mixing chip at an aqueous to organic phase ratio of 2 and a total flow rate of 22 ml/min (14.67 ml/min for RNA and 7.33 ml/min for the lipid solution. Both pumps are started synchronously. The mixer solution that flowed from the microfluidic chip is collected in 4×1 ml fractions with the first fraction being discarded as waste. The remaining solution containing the circRNA-transfer vehicles is exchanged by using G-25 mini desalting columns to 10 mM Tris-HCl, 1 mM EDTA, at pH 7.5, as described above. Following buffer exchange, the materials are characterized for size, and RNA entrapment through DLS analysis and Ribogreen assays, respectively.
(§1) Dialyzed LNPs were filtered using 0.2 μm filter. Prior to in vivo dosing, LNPs were diluted in PBS. LNP sizes were determined by dynamic light scattering. A cuvette with 1 mL of 20 μg/mL LNPs in PBS (pH 7.4) was measured for Z-average using the Malvern Panalytical Zetasizer Pro. The Z-average and polydispersity index were recorded.
as §1

[4] = In vivo FLuc expression by IVIS (whole body and organs) after LNP-circRNA dosing; parameters: species or system CD-1 or c57BL/6J mice; settings: mice, 0.5 mg/kg luciferase circRNA LNP i.v., named by ionizable lipid
Experimental: Circular or linear RNA encoding FLuc was generated and loaded into transfer vehicles with the following formulation: 50% ionizable Lipid 10b-15 represented by
10% DSPC, 1.5% PEG-DMG, 38.5% cholesterol. CD-1 mice were dosed at 0.2 mg/kg and luminescence was measured at 6 hours (live IVIS) and 24 hours (live IVIS and ex vivo IVIS). Total Flux (photons/second over a region of interest) of the liver, spleen, kidney, lung, and heart was measured (FIGS. 25 and 26).
Female CD-1 or female c57BL/6J mice ranging from 22-25 g were dosed at 0.5 mg/kg RNA intravenously. Six hours after injection, mice were injected intraperitoneally with 200 μL of D-luciferin at 15 mg/mL concentration. 5 minutes after injection, mice were anesthetized using isoflurane, and placed inside the IVIS Spectrum In Vivo Imaging System (Perkin Elmer) with dorsal side up. Post 10 minutes injection, mice were scanned for luminescence. Mice were euthanized and organs were extracted within 25 minutes of luciferin injection to scan for luminescence in liver, spleen, kidneys, lungs, and heart. Images (FIGS. 33A-B, 34A-B, 35A-B) were analyzed using Living Images (Perkin Elmer) software. Regions of interest were drawn to obtain flux and average radiance and analyzed for biodistribution of protein expression (FIG. 32A-B).

[5] = tested on: splenic immune cells; experiment: Cre circRNA LNP transfection of splenic immune cells in Ai9 Cre reporter mice (tdTomato); format: in vivo; settings: 0.5 mg/kg Cre circRNA LNP i.v., 48 hr, named by ionizable lipid
Experimental: Circular RNAs encoding Cre recombinase (Cre) are encapsulated into lipid nanoparticles as previously described. Female, 6-8 week old B6.Cg-Gt(ROSA)26Sortm9(CAG-tdTomato)Hze/J (Ai9) mice were dosed with lipid nanoparticles at 0.5 mg/kg RNA intravenously. Fluorescent tdTomato protein was transcribed and translated in Ai9 mice upon Cre recombination, meaning circular RNAs have been delivered to and translated in tdTomato+ cells. After 48 hr, mice were euthanized and the spleens were harvested, processed into a single cell suspension, and stained with various fluorophore-conjugated antibodies for immunophenotyping via flow cytometry.
Ai9 mice (B6.Cg-Gt(ROSA)26Sortm9(CAG-tdTomato)Hze/J, female, 6-8 weeks, n=3 per group) were injected i.v. with 0.5 mg/kg Cre circRNA LNPs or PBS. Ai9 mice transcribe and translate the fluorescent reporter tdTomato upon Cre recombination; meaning cells which are tdTomato+ have successfully been transfected with Cre circRNA. […] Flow cytometry was performed using an Attune Nxt Flow Cytometer (Thermo).

[6] = tested on: 1C1C7 cells; experiment: Anti-murine CD19 CAR expression in lipotransfected 1C1C7 cells; format: cell-based; settings: 24 hours after lipotransfection, circRNA named by IRES source virus
Experimental: After 24 hours, 1C1C7 cells were incubated with His-tagged recombinant murine CD19 (Sino Biological) protein, then stained with a secondary anti-His antibody. Afterwards, the cells were analyzed via flow cytometry.

[7] = tested on: 1C1C7 cells; experiment: Gaussia luciferase expression and stability by IRES in 1C1C7 cells; settings: 1C1C7, 24 and 48 hours

In the case of `CCCCCCCCC(CCCCCCCC)COC(=O)CCCCN(CCCCO)CCCCC(=O)OCC(CCCCCCCC)CCCCCCCC` [III-15], the pKa ([1]; Table 3, Representative Compounds of Formula (III)) is listed as 6.14.

With `CCCCCCCCC(CCCCCC)C(=O)OCCCCCCN(CCCCCCOC(=O)C(CCCCCC)CCCCCCCC)CCCn1ccnc1` (centres unmarked) [Lipid 10a-26, ((3-(1H-imidazol-1-yl)propyl)azanediyl)bis(hexane-6,1-diyl) bis(2-hexyldecanoate)] the “RNA Entrapment(%)” value [2] was 96%, the PDI [3] was 0.04 and the “Z-Average(nm)” value [3] was 84 nm. The “whole-body total flux (IVIS)” value ([4]; 6 hours) was “increased whole-body total flux” and the “ex vivo IVIS tissue expression and spleen to liver ratio” value [4] was “increased overall expression”.

With `CCCCCCCCCOC(=O)CCCCCCCN(CCO)CCCCCCCC(=O)OC(CCCCCCCC)CCCCCCCC` [Lipid 10b-15] the “splenic immune cells expressing tdTomato” value [5] was “effective at delivering circular RNAs to many splenic immune cell subsets” and the “ex vivo IVIS tissue expression and spleen to liver ratio” value [4] was “maintaining the desired spleen to liver ratios”.

With `CCCCCCCCCCCCCCSCCOC(=O)CCN(CCCn1ccnc1C)CCC(=O)OCCSCCCCCCCCCCCCCC` [Lipid 22-S14, bis(2-(tetradecylthio)ethyl) 3,3′-((3-(2-methyl-1H-imidazol-1-yl)propyl)azanediyl)dipropionate] the “RNA Entrapment(%)” value [2] was 97%, the PDI [3] was 0.05 and the “Z-Average(nm)” value [3] was 64 nm.

For `CCCCCCCCCCCCCCSCCOC(=O)CCN(CCCn1ccnc1)CCC(=O)OCCSCCCCCCCCCCCCCC` [Lipid 93-S14, bis(2-(tetradecylthio)ethyl) 3,3′-((3-(1H-imidazol-1-yl)propyl)azanediyl)dipropionate], the “RNA Entrapment(%)” value [2] was 95%, the PDI [3] was 0.04 and the “Z-Average(nm)” value [3] was 74 nm.

In the case of `CCCCCCCCOC(=O)CCCCCCCCCN(CCCCCCCCCC(=O)OCCCCCCCC)CCN(C)C` [Lipid I-13], the pKa ([1]; Table 1, Representative Lipids of Formula I) is listed as 6.15.

B1: caprine kobuvirus: "IRES sourced from the indicated virus" in circular RNA constructs "encoding anti-murine CD19 CAR" (nucleic acid)
DNA: GTGGCCACGCCCGGGCCACCGATACTTCCCTTCACTCCTTCGGGACTGTTGGGGAGGAACACAACAGGGCTCCCCTGTTTTCCCATTCCTTCCCCCTTTTCCCAACCCCAACCGCCGTATCTGGTGGCGGCAAGACACACGGGTCTTTCCCTCTAAAGCACAATTGTGTGTGTGTCCCAGGTCCTCCTGCGTACGGTGCGGGAGTGCTCCCACCCAACTGTTGTAAGCCTGTCCAACGCGTCGTCCTGGCAAGACTATGACGTCGCATGTTCCGCTGCGGATGCCGACCGGGTAACCGGTTCCCCAGTGTGTGTAGTGCGATCTTCCAGGTCCTCCTGGTTGGCGTTGTCCAGAAACTGCTTCAGGTAAGTGGGGTGTGCCCAATCCCTACAAAGGTTGATTCTTTCACCACCTTAGGAATGCTCCGGAGGTACCCCAGCAACAGCTGGGATCTGACCGGAGGCTAATTGTCTACGGGTGGTGTTTCCTTTTTCTTTTCACACAACTCTACTGCGTACAACTCACTGACTATCCACTTGCTCTGTCACG
modifications: Description of Unknown: CK1.4; Caprine Kobuvirus variant sequence
For B1, the “anti-mouse CD19 CAR expression” value [6] was “capable of driving expression of an anti-mouse CD19 CAR”.

B2: CK-739 IRES: "the IRES having the sequence of SEQ ID NO: 3282"; "had a long scanning tract" (nucleic acid)
DNA: B1 DNA
modifications: Description of Unknown: CK1.4; Caprine Kobuvirus variant sequence
With B2 the “expression after terminal or scanning tract deletions of the IRES” value [7] was “relatively unaffected by deletions in the scanning tract”.
